# Experimental data from patent US20250032487A1, “DISSOLUTION TEST” (JANSSEN SCIENCES IRELAND UNLIMITED COMPANY, priority 2021, published 2025).
# Assay: In vitro dissolution test, paddle apparatus (USP type 2), polysorbate 20 in 0.05 M sodium phosphate buffer pH 7.4
# Assay type: physicochemical
# Method: The dissolution of the suspensions was tested using a paddle apparatus (USP type 2, Ph. Eur, JP) with a rotation speed of 50 rpm in 900 mL 6.0% w/v polysorbate 20 in 0.05 M sodium phosphate buffer pH 7.4 at 5° C. The sample amount corresponds to 18 mg rilpivirine.
# After 360 minutes the temperature was increased to 37° C. and maintained for 60 minutes to simulate an infinity time point. The samples taken after the temperature infinity time points are labelled as 420 minutes.
# The quantity of dissolved drug substance was determined by a gradient ultra-high performance liquid chromatographic (UHPLC) method with UV detection at 280 nm.
# The dissolution of the three rilpivirine suspensions in water was performed using Paddle Apparatus (USP type 2, Ph.Eur., JP.) at 50 rpm in 900 mL of 6.0% w/v Polysorbate 20 in 0.05 M Sodium Phosphate buffer pH 7.4, at 5.0±0.5° C. An amount of 64.98 mg (=0.06 mL×1.083 g/mL (the theoretical density of the suspension))±5% of homogeneous suspension of rilpivirine (corresponding to 18±0.9 mg of rilpivirine) was added.
# The determination of the quantity of rilpivirine present in the dissolution samples is based upon a gradient ultra-high performance liquid chromatographic (UHPLC) method with UV detection at 280 nm.
# The dissolution of a suspension of nanoparticulate rilpivirine having a Dv50 of ˜200 nm was tested using the method of Example 1 but with different temperatures of the dissolution medium (37° C., 25° C., 15° C., and 5° C.).
# The dissolution of a suspension of nanoparticulate rilpivirine having a Dv50 of 218 nm was tested using the method of Example 1 but with different concentrations of the surfactant (1-6% w/v polysorbate 20).
# [1] = Example 4, nanoparticulate suspension Dv50 ~200 nm, 5° C., 6.0% w/v polysorbate 20, pH 7.4
# [2] = Example 5, nanoparticulate suspension Dv50 218 nm, 6% polysorbate 20, 5° C., pH 7.4
structure (smiles),measurement,setting,value
"Cc1cc(/C=C/C#N)cc(C)c1Nc1ccnc(Nc2ccc(C#N)cc2)n1 [rilpivirine, 4-[[4-[[4-[(1E)-2-cyanoethenyl]-2,6-dimethylphenyl]amino]-2-pyrimidinyl]amino]benzonitrile]",% dissolved after 6 hours,[1],Over 85%
same,% dissolved at 5 minutes,[1],less than 30%
same,time until fully dissolved,"Example 4, nanoparticulate suspension Dv50 ~200 nm, 37° C., 6.0% w/v polysorbate 20, pH 7.4, 50 rpm, 900 mL",around 10 minutes
same,delta % dissolved (difference between lowest and highest % dissolved in the dissolution profile),"Example 5, 6% polysorbate 20 method, suspension Dv50 218 nm, 5° C.",approximately 80%
same,% dissolved after 360 minutes,[2],more than 85%
same,"initial release, % dissolved",[2],below 20%
